In the assay the target is CCR4 (Homo sapiens (Human), UniProt P51679). In words: Calcium mobilization (Ca Flux) assay. The format is cell-based. The method, then: Calcium Mobilization Assay. Calcium mobilization experiments may be performed by labeling the human T-cell line CEM with […] dye (45 min at room temperature), washing with PBS, and re-suspending into flux buffer (HBSS with 1% FBS).
(Calcium assays in cells follow changes in intracellular calcium, usually with a dye or a luminescent sensor.)

pIC50: −log10 of the molar value. Where a name gives a salt, the structure may show the parent alone.

Sequence of CCR4 (P51679 whole entry): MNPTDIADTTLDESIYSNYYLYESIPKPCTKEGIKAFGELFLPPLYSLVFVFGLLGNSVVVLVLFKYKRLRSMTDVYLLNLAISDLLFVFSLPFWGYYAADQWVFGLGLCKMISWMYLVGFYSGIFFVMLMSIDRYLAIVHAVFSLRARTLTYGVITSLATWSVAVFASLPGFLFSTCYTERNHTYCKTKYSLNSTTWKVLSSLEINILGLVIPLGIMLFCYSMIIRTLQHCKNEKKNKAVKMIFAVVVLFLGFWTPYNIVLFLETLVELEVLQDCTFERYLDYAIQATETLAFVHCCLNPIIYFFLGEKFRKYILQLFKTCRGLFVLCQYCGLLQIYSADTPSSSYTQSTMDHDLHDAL

Usually pIC50 stands for the IC50 on a negative log10 scale, so that one unit is a factor of ten. As to `Cc1nn([C@H](C)c2ccc(Cl)cc2Cl)c2nc(N3CCC(N4CCCC(CCC(=O)O)C4)C(C)C3)cnc12` (mixture of isomers) [Example 41, 3-(1′-(1-((R)-1-(2,4-dichlorophenyl)ethyl)-3-methyl-1H-pyrazolo[3,4-b]pyrazin-6-yl)-3′-methyl-[1,4′-bipiperidin]-3-yl)propanoic acid], the pIC50 was below 6.30.
As for `Cc1nn([C@H](C)c2ccc(Cl)cc2Cl)c2nc(N3CC[C@H](N4CCC[C@H]4C(C)(C)O)[C@H](C)C3)cnc12` [Example 36, 2-((S)-1-((3R,4S)-1-(1-((R)-1-(2,4-Dichlorophenyl)ethyl)-3-methyl-1H-pyrazolo[3,4-b]pyrazin-6-yl)-3-methylpiperidin-4-yl)pyrrolidin-2-yl)propan-2-ol hydrochloride], the negative logarithm of the IC50 (pIC50) was 6.30 to 7.00.
As for `Cc1nn([C@H](C)c2ccc(Cl)cc2Cl)c2nc(C3=CCC(N4CCC[C@H]4C(=O)O)C(C)C3)cnc12` (stereo partly drawn) [Example 70, (4-(1-((R)-1-(2,4-Dichlorophenyl)ethyl)-3-methyl-1H-pyrazolo[3,4-b]pyrazin-6-yl)-6-methylcyclohex-3-en-1-yl)-L-proline trifluoroacetate], the pIC50 was 6.30 to 7.00.
`Cc1nn([C@H](C)c2ccc(Cl)cc2Cl)c2nc(N3CCC(N4CCC[C@H]4C(C)CC(=O)O)C(C)C3)cnc12` (stereo partly drawn) [Example 60, 3-((2S)-1-(1-(1-((R)-1-(2,4-Dichlorophenyl)ethyl)-3-methyl-1H-pyrazolo[3,4-b]pyrazin-6-yl)-3-methylpiperidin-4-yl)pyrrolidin-2-yl)butanoic acid 2,2,2-trifluoroacetate]: the pIC50 is 6.30 to 7.00.
On to `Cc1nn([C@H](C)c2ccc(Cl)cc2Cl)c2nc(N3CCC(N4CCC[C@H]4CCN)[C@H](C)C3)cnc12` (stereo partly drawn) [Example 45, 3-((R)-1-((3R,4S)-1-(1-((R)-1-(2,4-Dichlorophenyl)ethyl)-3-methyl-1H-pyrazolo[3,4-b]pyrazin-6-yl)-3-methylpiperidin-4-yl)pyrrolidin-2-yl)ethan-1-amine], for which the pIC50 was 6.30 to 7.00.
With `CCN(CC1(O)COC1)C1CC=C(c2cnc3c(C#N)nn([C@H](C)c4ccc(Cl)cc4Cl)c3n2)CC1C` (stereo partly drawn) [Example 92, 1-((R)-1-(2,4-dichlorophenyl)ethyl)-6-(4-(ethyl((3-hydroxyoxetan-3-yl)methyl)amino)-5-methylcyclohex-1-en-1-yl)-1H-pyrazolo[3,4-b]pyrazine-3-carbonitrile] the figure was 6.30 to 7.00; with `C[C@@H]1CN(c2cnc3c(C#N)nn([C@H](C)c4ccc(Cl)cc4F)c3n2)CC[C@@H]1N1CCC[C@H]1CCC(=O)O` [Example 90, 3-((S)-1-((3R,4S)-1-(1-((R)-1-(4-chloro-2-fluorophenyl)ethyl)-3-cyano-1H-pyrazolo[3,4-b]pyrazin-6-yl)-3-methylpiperidin-4-yl)pyrrolidin-2-yl)propanoic acid hydrochloric acid], above 7.00; with `Cc1nn([C@H](C)c2ccc(Cl)cc2Cl)c2nc(N3CCC(N4CCC[C@H]4CCC(O)C(F)(F)F)C(C)C3)cnc12` (single isomer, unassigned) [Example 47, hydrochloride], 6.30 to 7.00.
With `Cc1nn([C@H](C)c2ccc(Cl)cc2Cl)c2nc(N3CC[C@H](N4CCC[C@@H]4C)[C@H](C)C3)cnc12` [Example 22, 1-((R)-1-(2,4-Dichlorophenyl)ethyl)-3-methyl-6-((3R,4S)-3-methyl-4-((S)-2-methylpyrrolidin-1-yl)piperidin-1-yl)-1H-pyrazolo[3,4-b]pyrazine hydrochloride] the figure was 6.30 to 7.00; with `Cc1nn([C@H](C)c2ccc(Cl)cc2Cl)c2nc(C3=CCC(N4CCC[C@H]4CO)C(C)C3)cnc12` (stereo partly drawn) [Example 78, ((2S)-1-(4-(1-((R)-1-(2,4-Dichlorophenyl)ethyl)-3-methyl-1H-pyrazolo[3,4-b]pyrazin-6-yl)-6-methylcyclohex-3-en-1-yl)pyrrolidin-2-yl)methanol], above 7.00.
In the case of `CCC1CN(c2cnc3c(C#N)nn(C(C)c4ccc(Cl)cc4Cl)c3n2)CCC1N1CCCCC1` (stereo not drawn) [Example 7, 1-(1-(2,4-Dichlorophenyl)ethyl)-6-(3′-ethyl-[1,4′-bipiperidin]-1′-yl)-1H-pyrazolo[3,4-b]pyrazine-3-carbonitrile 2,2,2-trifluoroacetate], the pIC50 is 6.30 to 7.00.
For the compound `COC(C[C@@H]1CCCN1C1CCN(c2cnc3c(C)nn([C@H](C)c4ccc(Cl)cc4Cl)c3n2)CC1C)C(=O)O` (mixture of isomers) [Example 55, 3-((2S)-1-(1-(1-((R)-1-(2,4-Dichlorophenyl)ethyl)-3-methyl-1H-pyrazolo[3,4-b]pyrazin-6-yl)-3-methylpiperidin-4-yl)pyrrolidin-2-yl)-2-methoxypropanoic acid 2,2,2-trifluoroacetae], the pIC50 is below 6.30.
With `C[C@H](c1ccc(Cl)cc1Cl)n1nc(C#N)c2ncc(N3CC[C@@H](N4CCCCC4)[C@@H](C)C3)nc21` [Example 24, 1-((R)-1-(2,4-Dichlorophenyl)ethyl)-6-((3′S,4′R)-3′-methyl-[1,4′-bipiperidin]-1′-yl)-1H-pyrazolo[3,4-b]pyrazine-3-carbonitrile hydrochloride] the figure was below 6.30.
For `Cc1nn([C@H](C)c2ccc(Cl)cc2Cl)c2nc(N3CCC(N4CCC(F)CC4)C(C)C3)cnc12` (stereo partly drawn) [Example 61, 1-((R)-1-(2,4-Dichlorophenyl)ethyl)-6-(4-fluoro-3′-methyl-[1,4′-bipiperidin]-1′-yl)-3-methyl-1H-pyrazolo[3,4-b]pyrazine hydrochloride], the pIC50 is 6.30 to 7.00.
For the compound `C[C@@H]1CC(c2cnc3c(C#N)nn([C@H](C)c4ccc(Cl)cc4Cl)c3n2)=CCC1N1CCC[C@H]1C` (stereo partly drawn) [Example 83], the pIC50 is above 7.00.
With `CC1CC(c2cnc3c(C(F)(F)F)nn([C@H](C)c4ccc(Cl)cc4Cl)c3n2)=CCC1N1CCC[C@H]1CO` (stereo partly drawn) [Example 89], the pIC50 is 6.30 to 7.00.
With `C[C@@H]1C=C(c2cnc3c(C#N)nn([C@H](C)c4ccc(Cl)cc4Cl)c3n2)CC[C@@H]1N1CCC[C@H]1CO` [Example 69, 1-((R)-1-(2,4-Dichlorophenyl)ethyl)-6-((3R,4S)-4-((S)-2-(hydroxymethyl)pyrrolidin-1-yl)-3-methylcyclohex-1-en-1-yl)-1H-pyrazolo[3,4-b]pyrazine-3-carbonitrile hydrochloride] the figure was 6.30 to 7.00.
With `C[C@@H]1CC(c2cnc3c(C#N)nn([C@H](C)c4ccc(Cl)cc4Cl)c3n2)=CC[C@@H]1N1CCC[C@H]1CNS(C)(=O)=O` [Example 82, N—(((S)-1-((1S,6R)-4-(3-Cyano-1-((R)-1-(2,4-dichlorophenyl)ethyl)-1H-pyrazolo[3,4-b]pyrazin-6-yl)-6-methylcyclohex-3-en-1-yl)pyrrolidin-2-yl)methyl)methanesulfonamide hydrochloride] the figure was 6.30 to 7.00; with `Cc1nn([C@H](C)c2ccc(Cl)cc2Cl)c2nc(N3CCC(N4CCC[C@H]4CC(F)(F)C(=O)O)C(C)C3)cnc12` (stereo partly drawn) [Example 58, 3-((2S)-1-(1-(1-((R)-1-(2,4-Dichlorophenyl)ethyl)-3-methyl-1H-pyrazolo[3,4-b]pyrazin-6-yl)-3-methylpiperidin-4-yl)pyrrolidin-2-yl)-2,2-difluoropropanoic acid 2,2,2-trifluoroacetate], below 6.30.
With `Cc1nn([C@H](C)c2ccc(Cl)cc2Cl)c2nc(C3=CCC(N4CCC[C@H]4CO)CC3)cnc12` (stereo partly drawn) [Example 68, ((2S)-1-(4-(1-((R)-1-(2,4-Dichlorophenyl)ethyl)-3-methyl-1H-pyrazolo[3,4-b]pyrazin-6-yl)cyclohex-3-en-1-yl)pyrrolidin-2-yl)methanol] the figure was 6.30 to 7.00.
As to `Cc1nn([C@H](C)c2ccc(Cl)cc2Cl)c2nc(N3CC[C@H](N4CCCCCCC4)[C@H](C)C3)cnc12` [Example 16, 6-((3R,4S)-4-(Azocan-1-yl)-3-methylpiperidin-1-yl)-1-((R)-1-(2,4-dichlorophenyl)ethyl)-3-methyl-1H-pyrazolo[3,4-b]pyrazine hydrochloride], the pIC50 is above 7.00.
As for `CC(c1ccc(Cl)cc1Cl)n1nc(C#N)c2ncc(N3CCC(N4CCCCC4)C(F)C3)nc21` (stereo not drawn) [Example 26, 1-(1-(2,4-Dichlorophenyl)ethyl)-6-(3′-fluoro-[1,4′-bipiperidin]-1′-yl)-1H-pyrazolo[3,4-b]pyrazine-3-carbonitrile 2,2,2-trifluoroacetate], the pIC50 was below 6.30.
To `C[C@H](c1ccc(Cl)cc1Cl)n1nc(C#N)c2ncc(N3CC[C@@H](N4CCCCC4)[C@@H](CO)C3)nc21` [Example 28, 1-((R)-1-(2,4-Dichlorophenyl)ethyl)-6-((3′S,4′R)-3′-(hydroxymethyl)-[1,4′-bipiperidin]-1′-yl)-1H-pyrazolo[3,4-b]pyrazine-3-carbonitrile hydrochloride] belongs 6.30 to 7.00.
On to `C[C@@H]1CN(c2cnc3c(C#N)nn([C@H](C)c4ccc(Cl)cc4Cl)c3n2)CC[C@@H]1N1CCCCC1` [Example 23, 1-((R)-1-(2,4-Dichlorophenyl)ethyl)-6-((3′R,4′S)-3′-methyl-[1,4′-bipiperidin]-1′-yl)-1H-pyrazolo[3,4-b]pyrazine-3-carbonitrile hydrochloride], for which the pIC50 was above 7.00.
With `CCC1CN(c2cnc3cnn(C(C)c4ccc(Cl)cc4Cl)c3n2)CCC1N1CCCCC1` (stereo not drawn) [Example 9, 1-(1-(2,4-Dichlorophenyl)ethyl)-6-(3′-ethyl-[1,4′-bipiperidin]-1′-yl)-1H-pyrazolo[3,4-b]pyrazine hydrochloride] the figure was 6.30 to 7.00.
`CC1CN(c2cnc3cnn(C(C)c4ccc(Cl)cc4Cl)c3n2)CCC1N1CCCCC1` (stereo not drawn) [Example 8, 1-(1-(2,4-Dichlorophenyl)ethyl)-6-(3′-methyl-[1,4′-bipiperidin]-1′-yl)-1H-pyrazolo[3,4-b]pyrazine hydrochloride]: the pIC50 is 6.30 to 7.00.
Take `Cc1nn([C@H](C)c2ccc(Cl)cc2Cl)c2nc(N3CCC(C4CCCNC4)C(C)C3)cnc12` (stereo partly drawn) [Example 66, 1-((R)-1-(2,4-Dichlorophenyl)ethyl)-3-methyl-6-(3′-methyl-[3,4′-bipiperidin]-1′-yl)-1H-pyrazolo[3,4-b]pyrazine hydrochloride]: the pIC50 was 6.30 to 7.00.

For the origin of these results see patent publication US10246462B2, “Chemokine receptor modulators and uses thereof” (FLX Bio, Inc., priority 2016, dated 2019).
